From patent publication US11272841B2, “Indicator fluids, systems, and methods for assessing movement of substances within, to or from a cerebrospinal fluid, brain or spinal cord compartment of a cranio-spinal cavity of a human” (BRAINWIDESOLUTIONS AS, priority 2017, dated 2022)

Assays:
[1] = Gadobutrol concentration in blood at time points after gadobutrol was present in CSF (FIG. 1e-h); format: in vivo, human
Source text: In test studies, the inventors measured concentrations of the indicator fluid gadobutrol in blood at different time points after indicator fluid was present in CSF. […] In FIG. 1e-h are provided examples of measurements of gadobutrol (indicator fluid) concentrations in blood. On the y-axis is shown the indicator fluid concentration level 119 in blood (i.e. concentration of gadobutrol measured in units mg/kg), and on x-axis the time 120 elapsed from gadobutrol was present within the CSF. The concentration level of gadobutrol was measured after different time points 120, including after 1-2 hours, 3-4 hours, 5-6 hours, 7-8 hours, 23-26 hours, and 46-49 hours, for different individuals.
With reference to FIG. 1e, trend plots of average values of gadobutrol concentrations in blood (mg/kg) are shown for individuals with intracranial hypotension 121 (symbol ♦; n=4), idiopathic intracranial hypertension 122 (symbol ●; n=1), idiopathic normal pressure hydrocephalus 123 (symbol ▴; n=1), cerebral cyst 124 (symbol O; n=4), and arachnoid cyst 125 (symbol ▪; n=4). The letter n refers to number of individuals within each group. […] Half-time of gadobutrol in blood is about 1.8 hours. It should be noted that the amount and time course of appearance of gadobutrol in blood differs for the various groups of individuals, related to the fact that the ability to remove substances from the cranio-spinal compartment varies between individuals. […] The concentrations may be determined after 24 or 48 hours or after any time point within 72 hours after the indicator fluid is present in CSF.
In FIG. 1f-h, the inventors provide some examples of measurements of indicator fluid (the MRI contrast agent gadobutrol) concentration level in blood at different time points after indicator fluid being present in CSF in three separate individuals. It should be noted that the invention gives no limitation regarding the method by which the blood concentration is measured. […]

[2] = T1 black-blood MRI: percentage change in normalized signal units in CSF and parasagittal dura after intrathecal gadobutrol, cohort of 18 individuals (FIG. 23g-w); format: in vivo, human
Source text: It has for long been an unanswered question how a molecular substance escapes from the CSF of the craniospinal compartment to the dural lymphatics and further to extracranial lymph nodes in humans. Experimental studies in animals have indicated a role of lymphatic vessels in dura mater, but this has yet to be shown in human subjects. The present invention addresses removal of molecular substances from the craniospinal compartment in humans. Basis for the various aspects of the invention are novel observations made by the inventors regarding transport of indicator fluids from CSF to lymphatic structures in dura. The inventors have provided novel observations using time series of MRI T1 black-blood sequences after intrathecal administration of the MRI contrast agent gadobutrol. […]
FIG. 23o-s illustrate the determination of signal unit ratios, which is particularly useful when measuring indication signals from MRI. Enrichment of indicator fluid is measured as change in T1-BB signal units. […] The enrichment of CSF tracer is quantified as change in signal units (SU) within the regions of interest that are marked by an open circle. The measured signal units were normalized against the reference to correct for any baseline shift of image greyscale between time points. […]

O=C([O-])CN1CCN(CC(=O)[O-])CCN([C@H](CO)[C@H](O)CO)CCN(CC(=O)[O-])CC1.[Gd+3] (racemic) [gadobutrol]
Time of maximum concentration in blood after gadobutrol present in CSF ([1]; group trend plot: arachnoid cyst (n=4)): 3 to 4 h | Time of maximum concentration in blood after gadobutrol present in CSF ([1]; group trend plot: cerebral cyst (n=4)): 7 to 8 h | Time of maximum concentration in blood after gadobutrol present in CSF ([1]; group trend plots: intracranial hypotension (n=4), idiopathic intracranial hypertension (n=1), iNPH (n=1)): 5 to 6 h | Time of peak signal change (normalized T1-BB signal units) ([2]; CSF nearby parasagittal dura): 24 h | Time of peak signal change (normalized T1-BB signal units) ([2]; parasagittal dura): 24 h
